Experiments:
Assay in all cases: Binding assay using cell expressing the prostanoid receptor subtypes, [3H]-PGE2 competition on CHO membrane fraction
EP3 receptor = target: T1, EP3 receptor (Mus musculus, UniProt P30557); conditions: mouse EP3α, [3H]-PGE2 2.5 nM, pH 6.0
T1 construct: expressed in transfected cells; host or cells: CHO cells
T1 sequence (P30557 1-365): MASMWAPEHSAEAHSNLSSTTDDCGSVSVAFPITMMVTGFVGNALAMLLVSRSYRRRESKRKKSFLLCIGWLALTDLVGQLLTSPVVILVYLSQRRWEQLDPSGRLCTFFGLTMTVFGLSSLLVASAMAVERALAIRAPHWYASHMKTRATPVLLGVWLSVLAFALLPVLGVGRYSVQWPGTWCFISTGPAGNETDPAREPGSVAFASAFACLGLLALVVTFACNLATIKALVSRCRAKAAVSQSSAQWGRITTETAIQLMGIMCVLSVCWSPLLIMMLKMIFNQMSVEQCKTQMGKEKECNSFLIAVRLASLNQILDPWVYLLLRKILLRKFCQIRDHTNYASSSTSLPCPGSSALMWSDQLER
Method: (§1) (i) Binding Assay Using Cell Expressing the Prostanoid Receptor Subtypes
(§2) The preparation of membrane fraction was carried out according to the method of Sugimoto et al [J. Biol. Chem. 267, 6463-6466 (1992)], using CHO cell expressing prostanoid receptor subtypes (mouse EP1, EP2, EP3α, and EP4).
(§3) The standard assay mixture containing membrane fraction (50 μL), [^3H]-PGE2 in a final volume of 150 μL was incubated for 1 hour at room temperature. The reaction was terminated by addition of 3 mL of ice-cold buffer. The mixture was rapidly filtered through a glass filter (GF/B) under reduced pressure. The radioactivities associated with the filters were measured by liquid scintillation counter.
(§4) Kd and Bmax values were determined from Scatchard plots [Ann. N.Y. Acad. Sci. 51, 660(1949)]. Non-specific binding was determined as the amount bound in the presence of an excess (2.5 μM) of unlabeled PGE2. In the experiment for competition of specific [^3H]-PGE2 binding assay, [^3H]-PGE2 was added at a concentration of 2.5 nM and a test compound of the present invention was added at various concentrations. The following buffer was used in all reactions.
(§5) Buffer: 10 mM potassium phosphate (pH 6.0), 1 mM EDTA, 10 mM MgCl2, 0.1 M NaCl.
(§6) The inhibition constant (Ki) (μM) of each compound was calculated by the following equation.

EP2 receptor = target: T2, EP2 receptor (Mus musculus, UniProt Q62053); conditions: mouse EP2, [3H]-PGE2 2.5 nM, pH 6.0
T2 construct: expressed in transfected cells; host or cells: CHO cells
T2 sequence (Q62053 whole entry): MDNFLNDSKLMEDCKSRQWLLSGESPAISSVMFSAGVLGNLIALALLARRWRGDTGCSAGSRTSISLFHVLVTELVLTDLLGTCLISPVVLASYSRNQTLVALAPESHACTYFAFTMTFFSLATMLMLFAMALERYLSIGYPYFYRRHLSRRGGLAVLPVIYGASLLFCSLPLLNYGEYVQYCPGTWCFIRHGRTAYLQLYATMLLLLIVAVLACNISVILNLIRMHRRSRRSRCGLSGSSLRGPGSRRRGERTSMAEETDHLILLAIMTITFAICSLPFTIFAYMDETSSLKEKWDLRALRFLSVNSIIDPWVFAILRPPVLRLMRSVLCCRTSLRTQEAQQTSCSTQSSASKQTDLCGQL
Method: as §1, §2, §3, §4, §5, §6

EP4 receptor = target: T3, EP4 receptor (Mus musculus, UniProt P32240); conditions: mouse EP4, [3H]-PGE2 2.5 nM, pH 6.0
T3 construct: expressed in transfected cells; host or cells: CHO cells
T3 sequence (P32240 whole entry): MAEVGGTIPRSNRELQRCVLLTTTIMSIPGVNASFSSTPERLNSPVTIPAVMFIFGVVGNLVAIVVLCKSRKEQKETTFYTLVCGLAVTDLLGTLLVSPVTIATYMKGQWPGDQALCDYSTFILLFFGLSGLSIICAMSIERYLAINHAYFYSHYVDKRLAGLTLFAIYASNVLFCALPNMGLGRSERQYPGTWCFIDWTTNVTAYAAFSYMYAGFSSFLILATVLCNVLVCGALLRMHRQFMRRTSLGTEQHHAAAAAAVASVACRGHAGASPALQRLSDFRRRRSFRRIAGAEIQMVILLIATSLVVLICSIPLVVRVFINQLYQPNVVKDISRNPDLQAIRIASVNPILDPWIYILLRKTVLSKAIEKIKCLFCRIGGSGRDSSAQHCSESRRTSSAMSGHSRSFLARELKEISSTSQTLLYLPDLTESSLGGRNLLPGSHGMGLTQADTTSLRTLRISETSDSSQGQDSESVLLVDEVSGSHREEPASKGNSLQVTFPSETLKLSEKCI
Method: as §1, §2, §3, §4, §5, §6

EP1 receptor = target: T4, EP1 receptor (Mus musculus, UniProt P35375); conditions: mouse EP1, [3H]-PGE2 2.5 nM, pH 6.0
T4 construct: expressed in transfected cells; host or cells: CHO cells
T4 sequence (P35375 1-405): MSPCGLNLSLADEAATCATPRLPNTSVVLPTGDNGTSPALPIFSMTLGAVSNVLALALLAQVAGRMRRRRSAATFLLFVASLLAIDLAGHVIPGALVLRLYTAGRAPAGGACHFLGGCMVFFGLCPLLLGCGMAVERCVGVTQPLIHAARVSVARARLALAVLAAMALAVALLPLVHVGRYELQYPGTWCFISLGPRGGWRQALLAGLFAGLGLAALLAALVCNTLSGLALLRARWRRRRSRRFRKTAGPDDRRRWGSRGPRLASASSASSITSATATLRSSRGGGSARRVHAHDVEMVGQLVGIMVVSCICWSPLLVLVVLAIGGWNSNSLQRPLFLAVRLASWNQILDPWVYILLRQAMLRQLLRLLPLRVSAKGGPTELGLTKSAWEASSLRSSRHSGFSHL
Method: as §1, §2, §3, §4, §5, §6

CC(C(=O)Nc1ccccc1Cc1ccccc1C(=O)O)c1ccc(OCc2ccccc2)cc1 (stereo not shown) [2(1), 2-[2-[2-(4-Benzyloxyphenyl)propanoylamino]phenyl]methylbenzoic Acid]
Ki (EP3 receptor): 0.06 µM
Ki (EP2 receptor): 8 µM
Ki (EP4 receptor): 0.01 µM
Ki (EP1 receptor): 1.5 µM
